Experimental data published in US7371766B2, “Curcumin analogs with anti-tumor and anti-angiogenic properties” (Emory University, priority 1999, dated 2008).
Read-outs that look alike come from different tables or passages of the source.

Legend:
[1] = system: Tissue Factor (TF) production by human melanoma cell line RPMI-7951; experiment: TF ELISA, RPMI-7951; assay type: cell-based
Protocol: IMUBIND Tissue Factor ELISA Kit (American Diagnostica Inc, Greenwich, Conn.) was used to determine TF concentration in each sample. The ELISA was carried out according to manufacturer's procedure.

RPMI 7951 = experiment: Emory Laboratory Cell Screen, Neutral Red, RPMI 7951; assay type: cell-based, human; settings: RPMI 7951, Melanoma, 72 hours, read-out: Median Growth Inhibitory Concentration (GI50)
Protocol: (§1) Human tumor and endothelial cell lines were treated for 72 hours with compounds at a minimum of four concentrations between 0.1 μM-40 μM. Neutral Red assay was used to calculate cell viability.

[2] = system: Vascular Endothelial Growth Factor (VEGF) production by human prostate cancer cell line PC-3; experiment: VEGF ELISA, PC-3; assay type: cell-based; settings: for VEGF (% of DMSO): DMSO = 100%
HUVECS = experiment: Emory Laboratory Cell Screen, Neutral Red, HUVECS; assay type: cell-based, human; settings: 72 hours, read-out: Median Growth Inhibitory Concentration (GI50)
Protocol: as §1

[3] = system: Tissue Factor (TF) production by human prostate cancer cell line DU-145; experiment: TF ELISA, DU-145; assay type: cell-based; settings: 20 μM; for TF (% of DMSO): DMSO = 100%; for TF: mean of triplicate and S.D., DMSO 7699 ± 406
Protocol: (§2) Cells were treated with 1% Triton X-100 in PBS and left overnight at 4° C. overnight to solubilize TF. […] IMUBIND Tissue Factor ELISA Kit (American Diagnostica Inc, Greenwich, Conn.) was used to determine TF concentration in each sample. The ELISA was carried out according to manufacturer's procedure.

[4] = system: Human tumor and endothelial cell lines; experiment: Emory Laboratory Cell Screen, mean over cell lines; assay type: cell-based; settings: Mean over the Emory cell lines, 72 hours, read-out: Median Growth Inhibitory Concentration (GI50), Mean
Protocol: as §1

RPMI-7951 human melanoma = experiment: Neutral Red Assay, cell viability, RPMI-7951; settings: for Neutral Red Uptake, % / Cell Viability: RPMI-7951; for Neutral Red Uptake, %: 72 hours; for Cell Viability: DMSO = 100; for viability at 5 µM / viability at 20 µM: Homo sapiens
Protocol: RPMI-795 1, MDA-MB-231 and MDA-MB-435 cell lines were cultured in MEM-alpha medium (GIBCO-BRL, Long Island, N.Y.) containing 10% fetal bovine serum (RPMI-7951, MDA-MB-231) or 5% FBS (MDA-MB-435) at 37° C. and under 5% CO2/95% air. […] The cells were cultured in 48 well plates in all of the experiments described.
Neutral Red Assay was utilized to determine the effect of the compounds of the present invention on cell viability. Neutral Red was purchased from GIBCO-BRL (Long Island, N.Y.). Cells were plated at a concentration of 20,000 cells/well and cultured overnight. Compounds or vehicle (DMSO 0.1%) were then added and the plates were incubated for 72 hours. Supernatant from each well was either aspirated or collected and media containing Neutral Red (GIBCO-BRL, Long Island, N.Y.) at a concentration of 15 μl/ml was then added to each well. The plates were then incubated at 37° C. for 30 minutes. Next, the cells were washed with twice with PBS and alcoholic-HCl (0.5N—HCl/35% ethanol) was added to each well. The plates were then placed on a plate shaker until all residues were solubilized (pink color). The solubilized mixtures were then transferred to a 96 well plate and the absorbances were read on a micro-test plate reader at a wavelength of 570 nm.
Cell viability was determined by Neutral Red Assay.

[5] = system: Vascular Endothelial Growth Factor (VEGF) production by human melanoma cell line RPMI-7951; experiment: VEGF ELISA, RPMI-7951; settings: for VEGF / VEGF ELISA: RPMI-7951; for VEGF ELISA: DMSO control 3713; for activity at 5 µM / activity at 20 µM: Homo sapiens, RPMI-7951, 72 h, read-out: VEGF
[6] = system: Tissue Factor (TF) production by human prostate cancer cell line PC-3; experiment: TF ELISA, PC-3; assay type: cell-based; settings: 20 μM; for TF (% of DMSO): DMSO = 100%; for TF: mean of triplicate and S.D., DMSO 203 ± 6
Protocol: as §2

[7] = system: Vascular Endothelial Growth Factor (VEGF) production by human prostate cancer cell line DU-145; experiment: VEGF ELISA, DU-145; assay type: cell-based; settings: for VEGF (% of DMSO): DMSO = 100%
MDA-MB-231 = experiment: Emory Laboratory Cell Screen, Neutral Red, MDA-MB-231; assay type: cell-based, human; settings: Homo sapiens, MDA-MB-231, Breast Cancer, 72 hours, read-out: Median Growth Inhibitory Concentration (GI50)
Protocol: as §1

[8] = Table 5, 5 μM, DMSO control 7054
[9] = 20 μM, mean of triplicate and S.D., DMSO 2103 ± 100
[10] = Table 4, 20 μM, mean of triplicate and S.D.
[11] = 5 μM, DMSO control 4197 (EF-25: 1045)
[12] = 20 μM, mean of triplicate and S.D., DMSO 18760 ± 2633
[13] = Table 5, 20 μM, DMSO control 7054
[14] = RPMI-7951, 72 h, read-out: Neutral Red Uptake, %
[15] = RPMI-7951, read-out: Cell Viability

SMILES	TF ([1]; 5 μM, DMSO = 100)	TF ELISA ([1]; 5 μM, DMSO control 7054)	TF [1, 8]	GI50 (RPMI 7951)	VEGF (% of DMSO) ([2]; 20 μM)	VEGF [2, 9]	VEGF ([2]; Table 4, 20 μM, DMSO = 100)	VEGF [2, 10]	Cell Viability (RPMI-7951 human melanoma; 5 μM)	Cell Viability (RPMI-7951 human melanoma; 20 μM)	VEGF ([5]; 5 μM, DMSO = 100)	VEGF ELISA ([5]; 5 μM)	VEGF [5, 11]	VEGF ([5]; 20 μM, DMSO = 100)	VEGF ELISA ([5]; 20 μM)	VEGF ([5]; 20 μM, DMSO control 4197)	VEGF (% of DMSO) ([7]; 20 μM)	VEGF [7, 12]	VEGF ([7]; Table 4, 20 μM, DMSO = 100)	VEGF [7, 10]	other results
COc1cc(C=C2CCCC(=Cc3ccc(O)c(OC)c3)C2=O)ccc1O [MD10]	25%	1793 pg/ml/well	1793 pg/mL	2200 nM	(29%)	611 ± 248 pg/mL	29%	611 ± 248 pg/mL	91%	42%	44%	1585 pg/ml/well	1866 pg/mL	0%	315 pg/ml/well	0 pg/mL	(42%)	7830 ± 2262 pg/mL	42%	7830 ± 2262 pg/mL	TF ([1]; 1 μM, DMSO = 100): 113%; TF ([1]; 1 μM, DMSO control 7054): 7966 pg/mL; GI50 (HUVECS): 14000 nM; TF (% of DMSO) [3]: (76%); TF [3]: 5886 ± 332 pg/mL; GI50 [4]: 8100 nM; Neutral Red Uptake, % (RPMI-7951 human melanoma; 5 μM): 82 % of control; Neutral Red Uptake, % (RPMI-7951 human melanoma; 20 μM): 6 % of control; TF (% of DMSO) [6]: (0%); TF [6]: 0 ± 0 pg/mL
COc1cc(CC2CCCC(Cc3ccc(O)c(OC)c3)C2=O)ccc1O (centres unmarked) [Compound A231U]	78%		5473 pg/mL		(47%)	984 ± 349 pg/mL	47%	984 ± 349 pg/mL		80%				34%			(149%)	27875 ± 4446 pg/mL	149%	27875 ± 4446 pg/mL	TF ([1]; 20 μM, DMSO = 100): 85%; TF [1, 13]: 5981 pg/mL
O=C(C=Cc1cccc(O)c1)C=Cc1cccc(O)c1 [EF3, 1,5-Bis(3-hydroxyphenyl)penta-1,4-dien-3-one]					(44%)	917 ± 261 pg/mL	44%	917 ± 261 pg/mL				2092 pg/ml/well	2827 pg/mL		230 pg/ml/well	0 pg/mL	(138%)	25901 ± 620 pg/mL	149%	25901 ± 620 pg/mL	TF (% of DMSO) [3]: (87%); TF [3]: 6687 ± 188 pg/mL; viability at 5 µM (RPMI-7951 human melanoma; [14]): 77%; viability at 20 µM (RPMI-7951 human melanoma; [14]): 8%; viability at 5 µM (RPMI-7951 human melanoma; [15]): 88%; viability at 20 µM (RPMI-7951 human melanoma; [15]): 43%; activity at 5 µM [5]: 67%; activity at 20 µM [5]: 0%; TF (% of DMSO) [6]: (69%); TF [6]: 140 ± 8 pg/mL
COc1ccc(/C=C/C(=O)/C=C/c2ccc(OC)c(OC)c2)cc1OC [MD6]	25%	1753 pg/ml/well	1753 pg/mL	1900 nM	(87%)	1820 ± 283 pg/mL	87%	1820 ± 283 pg/mL	101%	42%	76%	2826 pg/ml/well	3200 pg/mL	1%	273 pg/ml/well	30 pg/mL	(98%)	18428 ± 3377 pg/mL	98%	18428 ± 3377 pg/mL	TF ([1]; 1 μM, DMSO = 100): 91%; TF ([1]; 1 μM, DMSO control 7054): 6400 pg/mL; GI50 (HUVECS): 3800 nM; GI50 [4]: 2900 nM; Neutral Red Uptake, % (RPMI-7951 human melanoma; 5 μM): 97 % of control; Neutral Red Uptake, % (RPMI-7951 human melanoma; 20 μM): 6 % of control
CC(=O)Oc1ccccc1C=CC(=O)C=Cc1ccccc1OC(C)=O [MD286]				1000 nM																	GI50 (HUVECS): 2300 nM; GI50 [4]: 1700 nM
COc1ccc(C=CC(=O)c2ccccc2)cc1OC [BA-3]									93%	102%	116%		4860 pg/mL	48%		2035 pg/mL					TF ([1]; 20 μM, DMSO = 100): 30%; TF [1, 13]: 2088 pg/mL
CN1CC(=Cc2ccccc2O)C(=O)C(=Cc2ccccc2O)C1 [EF34, 3,5-Bis(2-hydroxybenzylidene)1-methyl4-piperidone]																					GI50 ([4]; Homo sapiens, Endothelial cell): 800 nM; GI50 (MDA-MB-231): 800 nM
O=C(C=Cc1ccc(O)cc1)C=Cc1ccc(O)cc1 [EF1, 1,5-Bis(4-hydroxyphenyl)penta-1,4-dien-3-one]					(15%)	325 ± 75 pg/mL	15%	325 ± 75 pg/mL				1923 pg/ml/well	2573 pg/mL		234 pg/ml/well	0 pg/mL	(105%)	19616 ± 4624 pg/mL	105%	19616 ± 4624 pg/mL	TF (% of DMSO) [3]: (167%); TF [3]: 12879 ± 149 pg/mL; viability at 5 µM (RPMI-7951 human melanoma; [14]): 92%; viability at 20 µM (RPMI-7951 human melanoma; [14]): 8%; viability at 5 µM (RPMI-7951 human melanoma; [15]): 98%; viability at 20 µM (RPMI-7951 human melanoma; [15]): 43%; activity at 5 µM [5]: 61%; activity at 20 µM [5]: 0%; TF (% of DMSO) [6]: (53%); TF [6]: 107 ± 9 pg/mL
COc1ccc(CCC(O)CCc2ccc(OC)c(OC)c2)cc1OC [MD279L, 1,5-Bis(3,4-dimethoxyphenyl)penta-3-ol]	82%	5791 pg/ml/well	5791 pg/mL						110%	109%	22%	2235 pg/ml/well	904 pg/mL	0%	1603 pg/ml/well	0 pg/mL					TF ([1]; 20 μM, DMSO = 100): 83%; TF ELISA ([1]; 20 μM, DMSO control 7054): 5858 pg/ml/well; TF [1, 13]: 5858 pg/mL; Neutral Red Uptake, % (RPMI-7951 human melanoma; 5 μM): 100 % of control; Neutral Red Uptake, % (RPMI-7951 human melanoma; 20 μM): 100 % of control
